From patent publication US20100260841A1, “Method of Treating Atherosclerosis, Dyslipidemias and Related Conditions” (priority 2007, published 2010)

Assays:
[1] = patients, Compound E alone or coadministered with ERN
Method: (§1) Patients (N=412) were randomized to ERN 1 gram (given as Niaspan®, with no prior titration) plus compound E placebo, 18.75, 37.5, 75 or 150 mg, or double placebo for 4 weeks (acute phase) with doubling of the respective doses for the remaining 4 weeks (chronic phase). Patients reported flushing intensity using the validated Global Flushing Severity Score (GFSS); none/mild (0-3), moderate (4-6), severe (7-9) and extreme (10) in a daily eDiary. A subset of patients was randomized to compound E 150 mg versus placebo in a 4-week crossover safety study.

[2] = tested on: extended-release niacin (ERN) induced flushing; settings: patients
Method: as §1

[3] = tested on: lipid altering effects of ERN; settings: patients, Compound E 150 mg with ERN

Structure (SMILES): CS(=O)(=O)c1cc(F)cc2c3c(n(Cc4ccc(Cl)cc4)c12)[C@@H](CC(=O)O)CC3 [Compound E]
- incidence of adverse experiences [1]: low incidence
- acute phase flushing intensity compared to ERN alone ([2]; Compound E plus ERN 1 gram, first 4 weeks, GFSS, dose-response p<0.001): significantly lower
- chronic phase flushing intensity compared to ERN alone ([2]; Compound E plus ERN, doubled doses, remaining 4 weeks, GFSS, dose-response p=0.021): significantly lower
- tolerability and achievement of optimal therapeutic dosing of niacin ([2]; Compound E with ERN treatment): significantly improved
- flushing intensity versus ERN alone at each coadministered dose ([2]; each coadministered dose of Compound E (18.75, 37.5, 75 or 150 mg), p<0.05): significantly (p<0.05) lower flushing intensity
- impact on the lipid altering effects of ERN [3]: did not significantly impact
